Structures can show the parent of a compound that is named as a salt. Where two headings read alike, the source gives them in different places.
Tests used:
human ROCKα/ROCKII mix = molecular target: T1, human ROCKα/ROCKII mix (Homo sapiens, UniProt O75116); experiment: Biochemical assay for ROCK (fluorescence polarization, ROCK IMAP Kit)
T1 construct: purchased Upstate Biotechnology 14-451

PKC epsilon = molecular target: T2, PKC epsilon (Homo sapiens, UniProt Q02156); experiment: Biochemical assay for PKC epsilon (fluorescence polarization, Protein Kinase C Assay Kit, Red); conditions: read-out: IC50 μM PKCε
T2 construct: purchased Invitrogen P2282
T2 sequence (Q02156 1-737): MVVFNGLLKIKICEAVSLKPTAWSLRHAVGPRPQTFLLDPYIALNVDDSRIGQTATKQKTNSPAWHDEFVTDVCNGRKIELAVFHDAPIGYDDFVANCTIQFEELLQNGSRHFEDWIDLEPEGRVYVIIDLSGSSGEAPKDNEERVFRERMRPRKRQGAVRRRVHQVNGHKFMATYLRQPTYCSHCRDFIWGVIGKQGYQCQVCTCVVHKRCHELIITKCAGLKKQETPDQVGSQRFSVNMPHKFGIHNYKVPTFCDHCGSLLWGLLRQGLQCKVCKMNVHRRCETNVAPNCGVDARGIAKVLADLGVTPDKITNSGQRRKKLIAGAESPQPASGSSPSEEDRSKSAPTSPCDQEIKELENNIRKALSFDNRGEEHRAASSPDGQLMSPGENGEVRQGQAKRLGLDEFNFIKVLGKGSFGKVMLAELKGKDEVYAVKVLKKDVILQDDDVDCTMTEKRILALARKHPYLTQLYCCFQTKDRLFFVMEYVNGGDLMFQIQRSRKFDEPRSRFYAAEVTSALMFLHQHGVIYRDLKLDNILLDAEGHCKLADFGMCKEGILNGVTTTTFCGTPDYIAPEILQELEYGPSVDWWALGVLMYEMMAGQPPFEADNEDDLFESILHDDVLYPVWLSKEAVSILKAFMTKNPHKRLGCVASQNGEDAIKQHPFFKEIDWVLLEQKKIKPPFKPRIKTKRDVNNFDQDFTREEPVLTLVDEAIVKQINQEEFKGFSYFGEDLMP
Method in brief: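 PKC epsilon at 10 ng/ml final was preincubated 30 min at room temperature with compound in HEPES pH 7.4 with DTT and Triton X-100. ATP/protein substrate was then added in buffer with MgCl2 and CaCl2 for 80 min. The reaction was stopped with EDTA, phosphorylation was detected by fluorescence polarization with rhodamine tracer and anti-phosphoserine antibody, and IC50 values came from curve fits.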

[1] = Table 2, compounds of Formula XIII
[2] = compounds of Formula XIV, Table 3

T1 sequence (O75116 11-552 limits assumed): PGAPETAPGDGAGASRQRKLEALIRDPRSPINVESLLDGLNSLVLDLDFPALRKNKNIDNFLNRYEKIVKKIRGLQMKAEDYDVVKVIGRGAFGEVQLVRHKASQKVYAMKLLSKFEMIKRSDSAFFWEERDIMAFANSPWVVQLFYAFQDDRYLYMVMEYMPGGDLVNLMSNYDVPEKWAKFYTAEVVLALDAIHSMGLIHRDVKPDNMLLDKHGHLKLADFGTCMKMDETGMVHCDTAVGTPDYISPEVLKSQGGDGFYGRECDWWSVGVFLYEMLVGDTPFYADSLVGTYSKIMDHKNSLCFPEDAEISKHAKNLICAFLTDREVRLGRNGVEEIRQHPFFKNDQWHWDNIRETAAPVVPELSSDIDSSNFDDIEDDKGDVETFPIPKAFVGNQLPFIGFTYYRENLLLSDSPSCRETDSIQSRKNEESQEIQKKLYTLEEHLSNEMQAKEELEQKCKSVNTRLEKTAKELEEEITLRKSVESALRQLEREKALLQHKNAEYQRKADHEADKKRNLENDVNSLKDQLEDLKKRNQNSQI

Row | Compound | IC50 (human ROCKα/ROCKII mix; [1]) | IC50 (PKC epsilon; [1]) | other results
1 | CC(C)(C(=O)NCC(N)c1ccc(C(=O)Nc2ccncc2)cc1)c1cccs1 (centres unmarked) [Compound 348, 4-[1-Amino-2-(2-methyl-2-thiophen-2-yl-propionylamino)-ethyl]-N-pyridin-4-yl-benzamide] | 0.05 to 0.5 µM | < 0.05 µM | –
2 | NC(CNC(=O)C1(c2cccs2)CC1)c1ccc(C(=O)Nc2ccncc2)cc1 (centres unmarked) [Compound 349, 4-{1-Amino-2-[(1-thiophen-2-yl-cyclopropanecarbonyl)-amino]-ethyl}-N-pyridin-4-yl-benzamide] | 0.05 to 0.5 µM | 0.05 to 0.5 µM | –
3 | NC(CC(=O)N[C@H]1CCc2ccccc21)c1ccc(C(=O)Nc2ccncc2)cc1 (stereo partly drawn) [Compound 357, 4-[1-Amino-2-((S)-indan-1-ylcarbamoyl)-ethyl]-N-pyridin-4-yl-benzamide] | – | – | IC50 (human ROCKα/ROCKII mix; [2]): 0.05 to 0.5 µM; IC50 (PKC epsilon; [2]): 0.5 to 5 µM
4 | NC(CC(=O)N[C@@H]1CCc2ccccc21)c1ccc(C(=O)Nc2ccncc2)cc1 (stereo partly drawn) [Compound 358, 4-[1-Amino-2-((R)-indan-1-ylcarbamoyl)-ethyl]-N-pyridin-4-yl-benzamide] | – | – | IC50 (human ROCKα/ROCKII mix; [2]): 0.05 to 0.5 µM; IC50 (PKC epsilon; [2]): 0.05 to 0.5 µM
5 | N[C@H](CC(=O)N[C@H]1CCCc2ccccc21)c1ccc(C(=O)Nc2ccncc2)cc1 [Compound 372, 4-{(R)-1-Amino-2-[(S)-(1,2,3,4-tetrahydro-naphthalen-1-yl)carbamoyl]-ethyl}-N-pyridin-4-yl-benzamide dihydrochloric acid salt] | – | – | IC50 (human ROCKα/ROCKII mix): 0.05 to 0.5 µM; IC50 (PKC epsilon): 0.5 to 5 µM
6 | N[C@@H](CC(=O)N[C@@H]1CCCc2ccccc21)c1ccc(C(=O)Nc2ccncc2)cc1 [Compound 374, 4-{(S)-1-Amino-2-[(R)-(1,2,3,4-tetrahydro-naphthalen-1-yl)carbamoyl]-ethyl}-N-pyridin-4-yl-benzamide dihydrochloric acid salt] | – | – | IC50 (human ROCKα/ROCKII mix): 0.05 to 0.5 µM; IC50 (PKC epsilon): 0.5 to 5 µM
7 | N[C@@H](CC(=O)N[C@H]1CCCc2ccccc21)c1ccc(C(=O)Nc2ccncc2)cc1 [Compound 375, 4{(S)-1-Amino-2-[(S)-(1,2,3,4-tetrahydro-naphthalen-1-yl)carbamoyl]-ethyl}-N-pyridin-4-yl-benzamide dihydrochloric acid salt] | – | – | IC50 (human ROCKα/ROCKII mix): 0.05 to 0.5 µM; IC50 (PKC epsilon): 5 to 50 µM
8 | CC(C)(C(=O)NCC(N)c1ccc(C(=O)Nc2ccncc2)cc1)c1ccc(Cl)c(Cl)c1 (centres unmarked) [Compound 380, 4-{1-Amino-2-[2-(3,4-dichloro-phenyl)-2-methyl-propionylamino]-ethyl}-N-pyridin-4-yl-benzamide] | 0.05 to 0.5 µM | < 0.05 µM | –
9 | CC(C)(C(=O)NCC(N)c1ccc(C(=O)Nc2ccncc2)cc1)c1ccc(F)c(Cl)c1 (centres unmarked) [Compound 382, 4-{1-Amino-2-[2-(3-chloro-4-fluoro-phenyl)-2-methyl-propionylamino]-ethyl}-N-pyridin-4-yl-benzamide] | 0.05 to 0.5 µM | < 0.05 µM | –
10 | CC(C)(C(=O)NCC(N)c1ccc(C(=O)Nc2ccncc2)cc1)c1ccc(F)cc1F (centres unmarked) [Compound 384, 4-{1-Amino-2-[2-(2,4-difluoro-phenyl)-2-methyl-propionylamino]-ethyl}-N-pyridin-4-yl-benzamide] | 0.05 to 0.5 µM | < 0.05 µM | –
11 | NC(CNC(=O)C1(c2ccc(F)cc2F)CC1)c1ccc(C(=O)Nc2ccncc2)cc1 (centres unmarked) [Compound 385, 4-(1-Amino-2-{[1-(2,4-difluoro-phenyl)-cyclopropanecarbonyl]-amino}-ethyl)-N-pyridin-4-yl-benzamide] | 0.05 to 0.5 µM | < 0.05 µM | –
12 | CC(C)(C(=O)NCC(N)c1ccc(C(=O)Nc2ccncc2)cc1)c1ccc(F)cc1Cl (centres unmarked) [Compound 386, 4-{1-Amino-2-[2-(2-chloro-4-fluoro-phenyl)-2-methyl-propionylamino]-ethyl}-N-pyridin-4-yl-benzamide] | 0.05 to 0.5 µM | < 0.05 µM | –
13 | NC(CNC(=O)C1(c2ccc(F)cc2Cl)CC1)c1ccc(C(=O)Nc2ccncc2)cc1 (centres unmarked) [Compound 387, 4-(1-Amino-2-{[1-(2-chloro-4-fluoro-phenyl)-cyclopropanecarbonyl]-amino}-ethyl)-N-pyridin-4-yl-benzamide] | 0.05 to 0.5 µM | < 0.05 µM | –
14 | CC(C)(C(=O)NCC(N)c1ccc(C(=O)Nc2ccncc2)cc1)c1ccc(Cl)cc1F (centres unmarked) [Compound 388, 4-{1-Amino-2-[2-(4-chloro-2-fluoro-phenyl)-2-methyl-propionylamino]-ethyl}-N-pyridin-4-yl-benzamide] | 0.05 to 0.5 µM | < 0.05 µM | –
15 | N[C@H](CNC(=O)C1(c2ccc(Cl)cc2)CC1)c1ccc(C(=O)Nc2ccncc2)cc1 [Compound 397, 4-((S)-1-Amino-2-{[1-(4-chloro-phenyl)-cyclopropanecarbonyl]-amino}-ethyl)-N-pyridin-4-yl-benzamide dihydrochloric acid salt] | – | – | IC50 (human ROCKα/ROCKII mix): 0.05 to 0.5 µM; IC50 (PKC epsilon): < 0.05 µM
16 | N[C@@H](CNC(=O)C1(c2ccc(Cl)cc2)CC1)c1ccc(C(=O)Nc2ccncc2)cc1 [Compound 398, 4-((R)-1-Amino-2-{[1-(4-chloro-phenyl)-cyclopropanecarbonyl]-amino}-ethyl)-N-pyridin-4-yl-benzamide dihydrochloric acid salt] | – | – | IC50 (human ROCKα/ROCKII mix): 0.5 to 5 µM; IC50 (PKC epsilon): 0.5 to 5 µM
17 | CC(C)(C(=O)NC[C@H](N)c1ccc(C(=O)Nc2ccncc2)cc1)c1ccc(Cl)cc1 [Compound 400, 4-{(R)-1-Amino-2-[2-(4-chloro-phenyl)-2-methyl-propionylamino]-ethyl}-N-pyridin-4-yl-benzamide] | – | – | IC50 (human ROCKα/ROCKII mix): 0.5 to 5 µM; IC50 (PKC epsilon): 0.5 to 5 µM
18 | N[C@H](CC(=O)NCc1ccc(F)cc1)c1ccc(C(=O)Nc2ccncc2)cc1 [Compound 401, 4-[(R)-1-Amino-2-(4-fluoro-benzylcarbamoyl)-ethyl]-N-pyridin-4-yl-benzamide dihydrochloric acid salt] | – | – | IC50 (human ROCKα/ROCKII mix): 0.05 to 0.5 µM; IC50 (PKC epsilon): < 0.05 µM
19 | N[C@@H](CC(=O)NCc1ccc(F)cc1)c1ccc(C(=O)Nc2ccncc2)cc1 [Compound 402, 4-[(S)-1-Amino-2-(4-fluoro-benzylcarbamoyl)-ethyl]-N-pyridin-4-yl-benzamide dihydrochloric acid salt] | – | – | IC50 (human ROCKα/ROCKII mix): 0.05 to 0.5 µM; IC50 (PKC epsilon): 0.05 to 0.5 µM

Second part, led by results:

Row | IC50 (human ROCKα/ROCKII mix; [1]) | IC50 (PKC epsilon; [1]) | Compound | other results
20 | 0.05 to 0.5 µM | 0.05 to 0.5 µM | COc1ccc2c(c1)CCCC2C(=O)NCC(N)c1ccc(C(=O)Nc2ccncc2)cc1 (centres unmarked) [Compound 355, 6-Methoxy-1,2,3,4-tetrahydro-naphthalene-1-carboxylic acid {2-amino-2-[4-(pyridin-4-ylcarbamoyl)-phenyl]-ethyl}-amide] | –
21 | 0.05 to 0.5 µM | < 0.05 µM | NC(CNC(=O)C1(c2ccc(F)c(F)c2)CC1)c1ccc(C(=O)Nc2ccncc2)cc1 (centres unmarked) [Compound 377, 4-(1-Amino-2-{[1-(3,4-difluoro-phenyl)-cyclopropanecarbonyl]-amino}-ethyl)-N-pyridin-4-yl-benzamide] | –
22 | 0.05 to 0.5 µM | < 0.05 µM | NC(CNC(=O)C1(c2ccc(F)c(F)c2)CCC1)c1ccc(C(=O)Nc2ccncc2)cc1 (centres unmarked) [Compound 378, 4-(1-Amino-2-{[1-(3,4-difluoro-phenyl)-cyclobutanecarbonyl]-amino}-ethyl)-N-pyridin-4-yl-benzamide] | –
23 | 0.05 to 0.5 µM | < 0.05 µM | NC(CNC(=O)C1(c2ccc(F)c(F)c2)CCCC1)c1ccc(C(=O)Nc2ccncc2)cc1 (centres unmarked) [Compound 379, 4-(1-Amino-2-{[1-(3,4-difluoro-phenyl)-cyclopentanecarbonyl]-amino}-ethyl)-N-pyridin-4-yl-benzamide] | –
24 | 0.05 to 0.5 µM | 0.05 to 0.5 µM | NC(CNC(=O)C1(c2ccc(Cl)c(Cl)c2)CCC1)c1ccc(C(=O)Nc2ccncc2)cc1 (centres unmarked) [Compound 381, 4-(1-Amino-2-{[1-(3,4-dichloro-phenyl)-cyclobutanecarbonyl]-amino}-ethyl)-N-pyridin-4-yl-benzamide] | –
25 | 0.05 to 0.5 µM | < 0.05 µM | NC(CNC(=O)C1(c2ccc(Cl)cc2F)CC1)c1ccc(C(=O)Nc2ccncc2)cc1 (centres unmarked) [Compound 389, 4-(1-Amino-2-{[1-(4-chloro-2-fluoro-phenyl)-cyclopropanecarbonyl]-amino}-ethyl)-N-pyridin-4-yl-benzamide] | –
26 | 0.05 to 0.5 µM | 0.05 to 0.5 µM | NC(CNC(=O)C1CCOc2ccccc21)c1ccc(C(=O)Nc2ccncc2)cc1 (centres unmarked) [Compound 390, Chroman-4-carboxylic acid {2-amino-2-[4-(pyridin-4-ylcarbamoyl)-phenyl]-ethyl}-amide] | –
27 | 0.05 to 0.5 µM | 0.05 to 0.5 µM | NC(CNC(=O)C1CCSc2ccccc21)c1ccc(C(=O)Nc2ccncc2)cc1 (centres unmarked) [Compound 391, Thiochroman-4-carboxylic acid {2-amino-2-[4-(pyridin-4-ylcarbamoyl)-phenyl]-ethyl}-amide] | –
28 | 0.05 to 0.5 µM | 0.05 to 0.5 µM | NC(CNC(=O)C1CCOc2ccc(F)cc21)c1ccc(C(=O)Nc2ccncc2)cc1 (centres unmarked) [Compound 393, 6-Fluoro-chroman-4-carboxylic acid {2-amino-2-[4-(pyridin-4-ylcarbamoyl)-phenyl]-ethyl}-amide] | –
